Source: patent US5760214A, “Bone resorption inhibition/osteogenesis promotion compound” (Iskra Industry Co., Ltd., priority 1993, dated 1998)

Columns and labels:
[1] = test system: osteoblast originating from the calvaria of Whister rats; assay: Osteogenesis Test (1) (Experiment 3), von Kossa dyeing; type: cell-based; settings: 10^-8 M, addition in calcification period
Experimental: A first generation incubation system of the osteoblast originating from the calvaria of Whister rats (female, 6-months' age) was used as the test cells. After the start of incubation, the sample drug (compound 1-3) was added once a day to the medium in a dose of 10^-6 M, 10^-8 M or 10^-9 M on the second and third days (propagation period). Alternatively, the compound 1-3 in the amount described above was added once a day to the medium for 4 days (calcification period) from the seventh day from the start of incubation. On the fourteenth day from the start of incubation, the cells were subjected to von Kossa dyeing and detection of phosphates was carried out. The area of the bone knots which were dyed to brown was confirmed by the naked eye and was used as the index for osteogenesis.

[2] = Intracorporeal Distribution of Compound (Experiment 1); type: in vivo; settings: mice, 20 μCi/20 g; for drug concentration in blood: i.v. tail vein, 3H, mean; for drug quantity in tissue: brain / drug quantity in tissue: muscle / drug quantity in tissue: stomach: i.v.
Experimental: The compound 1-3 produced in Synthesis Example 1-3 was subjected to radioactive labelling by ^3 H (0.34 mCi/mg), and was injected into the vein of the tail of mice in a dosage of 20 μCi/20 g. Groups of mice each comprising five mice were killed at 1 minute, 5 minutes, 15 minutes, 30 minutes, 1 hour, 4 hours, 6 hours, 24 hours, 48 hours and 72 hours after the injection, and 50 μl of the blood was collected from the eye socket of each mouse. Further, the heart, the womb, the small intestine, bones (thighbone), etc., were collected from each mouse, and 50 mg of the tissue (50 μl for the blood) was placed into a plastic test tube. Further, 0.2 ml of perchloric acid, 0.4 ml of hydrogen peroxide and a drop of n-octyl alcohol were put into the test tube, and the test tube was left in a water bath at 75° C. for 45 minutes. Next, 0.1 ml of this digestive fluid was sampled and was placed into a bottle storing a scintillating solution and furthermore, 5 ml of 0.5% scintillating solution was mixed. After the solution became transparent, it was placed into an FJ2105 liquid scintillation counter so as to measure radioactivity and to determine cpm of the sample. Separately, dpm of 52 samples obtained from four groups of animals was measured (External Standard Method).
The quantity of the drug inside the tissue was determined in the following way.
Drug quantity in tissue (cpm/mg)=(sample cpm).div.(digested tissue quantity (mg))
Drug quantity in tissue (μg/mg)=(sample cpm/mg×6)[…](count efficiency (E)×2.22×10^7 ×0.34 mCi/mg (specific radioactivity))

[3] = test system: mice; assay: Acute Toxicity Test (Experiment 2); type: in vivo, mice (Kunming species); settings: for No. of dead animals: of 10 animals
Experimental: The compound 1-3 was pale yellow crystalline poweder and its lot number was 930113. The solution was a pale yellow transparent solution, and has a concentration of 50 mg/ml and a pH of about 5. It was offered from Osteoporosis Research Laboratory, Department of Pharmacy, West China University of Medical Science School (WCUMS).
Kunming species mice, health: first class, weight: 18 to 21 g, half male and half female. The mice were offered from Experimental Animal Center of WCUSM.
Four to five dose groups were prepared in equal ratios (1:0.7 to 0.8) within the LD range of 0 to 100% obtained by preliminary tests. The drug for peroral administration was prepared by suspending the solid compound 1-3 in 1% CMCNa2 to form a suspension. For injection, drug solutions having different concentrations were prepared by dissolving the compound 1-3 in physiological saline solution by a low specific gravity dilution method. The animals were starved (but without limiting water), and 20 hours later, ten mice were grouped at random into each group irrespective of their sex and body weight. The drug was dosed once a day in a dose of 0.2 ml/10 g and the animals were inspected. Dead animals were dissected and any change of the morbid state was examined with by the naked eye.
After the chemical was dosed once in the maximum concentration and in the maximum capacity for peroral administration to 20 mice (10 males and 10 females), the animals were examined for 7 days. […] The maximum tolerance dose (MTD) was >6 g/kg.

[4] = test system: synthesis of bone proteins; settings: cell level, U.S. Pat. No. 4,925,833; cited from earlier work
[5] = peroral, maximum concentration, single dose, 7 days

CN(C)C1C(=O)C(C(=O)NCN2CCN(CCOc3ccc4c(c3)CCC3C4CCC4(C)C(=O)CCC34)CC2)=C(O)C2(O)C(=O)C3=C(O)c4c(O)cccc4C(C)(O)C3CC12 (stereo not shown) [Compound 1-3, N-4-[17-oxy-estra-1,3,5 (10)-trien-3-oxyethyl]-piperazine-1-methylene-tetracycline]
Osteogenesis promotion function, calcification period [1]: .uparw. .uparw.
drug concentration in blood ([2]; 1 min): 8665 cpm/50 μl
drug concentration in blood ([2]; 5 min): 5238 cpm/50 μl
drug concentration in blood ([2]; 15 min): 2638 cpm/50 μl
drug concentration in blood ([2]; 30 min): 2347 cpm/50 μl
drug concentration in blood ([2]; 1 hr): 952 cpm/50 μl
drug concentration in blood ([2]; 4 hr): 659 cpm/50 μl
drug concentration in blood ([2]; 6 hr): 715 cpm/50 μl
drug concentration in blood ([2]; 24 hr): 523 cpm/50 μl
drug concentration in blood ([2]; 48 hr): 272 cpm/50 μl
drug concentration in blood ([2]; 72 hr): 190 cpm/50 μl
drug quantity in tissue: brain ([2]; 1 min): 20 cpm/mg tissue
drug quantity in tissue: muscle ([2]; 1 min): 28 cpm/mg tissue
drug quantity in tissue: stomach ([2]; 1 min): 30 cpm/mg tissue
drug quantity in tissue: brain ([2]; 5 min): 13 cpm/mg tissue
drug quantity in tissue: muscle ([2]; 5 min): 32 cpm/mg tissue
drug quantity in tissue: stomach ([2]; 5 min): 39 cpm/mg tissue
drug quantity in tissue: brain ([2]; 15 min): 9 cpm/mg tissue
drug quantity in tissue: muscle ([2]; 15 min): 15 cpm/mg tissue
drug quantity in tissue: stomach ([2]; 15 min): 28 cpm/mg tissue
drug quantity in tissue: brain ([2]; 30 min): 10 cpm/mg tissue
drug quantity in tissue: muscle ([2]; 30 min): 22 cpm/mg tissue
drug quantity in tissue: stomach ([2]; 30 min): 32 cpm/mg tissue
drug quantity in tissue: brain ([2]; 1 hour): 7 cpm/mg tissue
drug quantity in tissue: muscle ([2]; 1 hour): 11 cpm/mg tissue
drug quantity in tissue: stomach ([2]; 1 hour): 12 cpm/mg tissue
drug quantity in tissue: brain ([2]; 4 hours): 7 cpm/mg tissue
drug quantity in tissue: muscle ([2]; 4 hours): 7 cpm/mg tissue
drug quantity in tissue: stomach ([2]; 4 hours): 10 cpm/mg tissue
drug quantity in tissue: brain ([2]; 6 hours): 6 cpm/mg tissue
drug quantity in tissue: muscle ([2]; 6 hours): 6 cpm/mg tissue
drug quantity in tissue: stomach ([2]; 6 hours): 9 cpm/mg tissue
drug quantity in tissue: brain ([2]; 24 hours): 4 cpm/mg tissue
drug quantity in tissue: muscle ([2]; 24 hours): 4 cpm/mg tissue
drug quantity in tissue: stomach ([2]; 24 hours): 6 cpm/mg tissue
drug quantity in tissue: brain ([2]; 48 hours): 4 cpm/mg tissue
drug quantity in tissue: muscle ([2]; 48 hours): 5 cpm/mg tissue
drug quantity in tissue: stomach ([2]; 48 hours): 4 cpm/mg tissue
drug quantity in tissue: brain ([2]; 72 hours): 3 cpm/mg tissue
drug quantity in tissue: muscle ([2]; 72 hours): 4 cpm/mg tissue
drug quantity in tissue: stomach ([2]; 72 hours): 3 cpm/mg tissue
toxicity [3]: its toxicity was extremely low
activity / behaviour after injection ([3]; after intravenous injection): activity of the mice decreased and then the mice started jumping and went into spasm
difference between the sexes of the dead animals ([3]; after intravenous injection): No difference was found between the sexes of the dead animals
eyeball, incontinence ([3]; after intravenous injection): The eyeball protruded and changed to white, and incontinence of urine and feces was observed
time of death of poisoned animals ([3]; after intravenous injection): the major proportion of the poisoned animals died instantly, an extremely few survived were also dead within 24 hours
change of the morbid state in dissection ([3]; dead animals, naked eye): any change of the morbid state could not at all be observed by the naked eye
death ratio ([3]; i.v. tail vein, 102.4 mg/kg): 0%
provit unit (Y) ([3]; i.v. tail vein, 102.4 mg/kg): 2.60
No. of dead animals ([3]; i.v. tail vein, 102.4 mg/kg): 0
death ratio ([3]; i.v. tail vein, 128 mg/kg): 20%
provit unit (Y) ([3]; i.v. tail vein, 128 mg/kg): 4.16
No. of dead animals ([3]; i.v. tail vein, 128 mg/kg): 2
death ratio ([3]; i.v. tail vein, 160 mg/kg): 80%
provit unit (Y) ([3]; i.v. tail vein, 160 mg/kg): 5.84
No. of dead animals ([3]; i.v. tail vein, 160 mg/kg): 8
death ratio ([3]; i.v. tail vein, 200 mg/kg): 100%
provit unit (Y) ([3]; i.v. tail vein, 200 mg/kg): 7.40
No. of dead animals ([3]; i.v. tail vein, 200 mg/kg): 10
death ratio ([3]; i.v. tail vein, 250 mg/kg): 100%
No. of dead animals ([3]; i.v. tail vein, 250 mg/kg): 10
LD50 ([3]; i.v. tail vein, Bliss method): 143.11 mg/kg
LD50, range of 95% reliability limit ([3]; i.v. tail vein, Bliss method): 132.95 to 154.05 mg/kg
LD50 ([3]; intravenous injection, tail vein): 143.11 mg/kg
abnormality in the mice [3, 5]: no abnormality was found in the mice
death of mice [3, 5]: no mouse was dead

CN(C)[C@@H]1C(O)=C(C(N)=O)C(=O)[C@@]2(O)C(O)=C3C(=O)c4c(O)cccc4[C@@](C)(O)[C@H]3C[C@@H]12 [tetracycline]
synthesis of bone proteins [4]: promotes the synthesis of bone proteins
